Consider 16 compounds from publication PMC6944710, “In vitro and in silico insights into tyrosinase inhibitors with (E)-benzylidene-1-indanone derivatives” (Computational and Structural Biotechnology Journal, 2019).

In data set [1] the target is mushroom tyrosinase. The data set can be described thus: Mushroom tyrosinase inhibitory assay (L-tyrosine or L-DOPA as substrate). The data set is classed as biochemical, Agaricus bisporus. Particulars: for IC50: mean ± SEM of triplicate experiments; for Tyrosinase inhibitory activity (in words) / Inhibitory effect at the concentration of 200 µM: mushroom tyrosinase; for Tyrosinase inhibitory activity (in words): L-tyrosine and L-DOPA. On the procedure:
Tyrosinase inhibitory activity assay was performed using mushroom tyrosinase as described previously, with minor modification, [36]. […] […] The reaction mixtures were incubated at 37 °C for 30 min. After that, the amount of dopachrome produced in each well was measured by spectrophotometric analysis at 492 nm (OD492) using a microplate reader.

The target in data set [2] is mushroom tyrosinase. Briefly: Enzyme kinetic analysis with tyrosinase (Lineweaver-Burk and Dixon plots). Type of data set: biochemical, Agaricus bisporus. Particulars: L-DOPA as substrate. On the procedure:
To determine the kinetic mechanisms of inhibition, two complimentary kinetics methods were used: Lineweaver–Burk and Dixon plots, [38], [39]. Using Lineweaver-Burk plots (double reciprocal plots), the inhibition type of BID3 was determined using various concentrations of L-DOPA (0.125, 0.25, 0.5, and 1 mM), as substrates, in the absence and presence of various concentrations of BID3 (1, 2, and 4 μM). A Dixon plot (single reciprocal plots) for tyrosinase inhibition was obtained in the presence of various concentrations of L-DOPA (0.125, 0.25, 0.5, and 1 mM). The concentrations of BID3 were 1, 2, and 4 µM. The enzymatic procedures consisted of the previously described tyrosinase assay methods. The inhibition constant (Ki) was determined from the interpretation of Dixon plots.

The test system of data set [3] is B16F10 melanoma cells. The data set can be described thus: Cell viability assay (EZ-Cytox). The data set is classed as cell-based, Murine. The conditions noted are these: 1–20 µM, 24 h and 48 h. The method, then: Murine melanoma B16F10 cells were purchased from the Korean Cell Line Bank (KCLB, Seoul, Korea) and cultured in DMEM supplemented with 10% FBS and 1% streptomycin, and then incubated at 37 °C, humidified with 5% atmospheric CO2. Cell viability analyses were performed as previously described. Briefly, cells seeded at a density of 1 × 10^4 cells/well in a 96-well plate for 24 h. On the following day, the cells were exposed to different concentrations of BID3 and incubated for 24 or 48 h, respectively. Then, 10 µL EZ-Cytox solution was added to each well and the cells were incubated for 2–4 h. Absorbance was determined using ELISA at a wavelength of 450 nm. Each assay was performed in triplicate.

Data set [4] concerns B16F10 melanoma cells. Briefly: Melanin contents assay in α-MSH and IBMX-stimulated cells. Type of data set: cell-based, Murine. The conditions noted are these: BID3 1, 5, and 20 µM (methods: 1, 5, and 10 µM), 48 h. The method, then:
Melanin content was determined as described previously. B16F10 melanoma cells (2 × 10^5 cells/well) were seeded in 6-well culture plates. […] After washed twice with PBS, the cells were detached by incubation in Trypsin/EDTA, and the pellets were dissolved in 100 µL of 1 N NaOH, and then incubated at 60 °C for 1 h and mixed to solubilize the melanin. The melanin contents were determined by measuring absorbance at 405 nm by using the ELISA reader (TECAN, Sunrise, Austria). The melanin content was calculated using the following equation: (Δsample/Δcontrol) × 100%. All determinations were performed in triplicate.

The target in data set [5] is T1, cellular tyrosinase of B16F10 cells (Mus musculus, UniProt P11344).
T1 construct: endogenous in cells; host or cells: B16F10 melanoma cells
T1 sequence (P11344 19-533): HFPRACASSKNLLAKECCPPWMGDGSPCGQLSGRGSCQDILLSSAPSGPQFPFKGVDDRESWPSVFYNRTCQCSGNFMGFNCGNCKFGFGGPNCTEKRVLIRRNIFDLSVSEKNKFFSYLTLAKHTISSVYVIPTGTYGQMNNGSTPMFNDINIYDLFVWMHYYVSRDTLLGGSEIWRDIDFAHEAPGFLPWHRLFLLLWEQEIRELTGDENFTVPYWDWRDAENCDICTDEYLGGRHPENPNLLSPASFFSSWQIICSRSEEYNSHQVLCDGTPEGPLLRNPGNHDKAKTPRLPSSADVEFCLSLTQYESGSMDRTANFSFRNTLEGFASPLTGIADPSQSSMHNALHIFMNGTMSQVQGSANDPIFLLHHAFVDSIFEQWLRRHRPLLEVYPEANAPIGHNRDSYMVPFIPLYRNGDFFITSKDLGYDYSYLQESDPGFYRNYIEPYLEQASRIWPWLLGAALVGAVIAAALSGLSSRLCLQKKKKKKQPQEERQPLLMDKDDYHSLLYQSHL
The data set can be described thus: Cellular tyrosinase activity in α-MSH and IBMX-stimulated cells. The data set is classed as cell-based, Murine. Particulars: BID3 1, 5, and 20 µM (methods: 1, 5, and 10 µM), 48 h. On the procedure: Cellular tyrosinase activity was assessed as described previously, with slight modifications, [45]. Briefly, 2 × 10^5/cells were plated in 6-well dishes and incubated overnight. […] After being rinsed twice with PBS, the cells were lysed with 100 µL lysis solution containing 50 mM phosphate buffer (pH 6.5), 0.1 mM phenylmethylsulfonylfluoride (PMSF), and 1% Triton X-100 and frozen at −80 °C for 30 min. Lysates were thawed and centrifuged at 12,000 rpm for 30 min at 4 °C. […] After incubation at 37 °C for 30 min, the optical density at 492 nm was measured using an ELISA reader (TECAN, Salzburg, Austria). The protein concentration was determined using BCA protein assay reagent using […] (Thermo Scientific, Rockford, IL, USA).

A further data set concerns tyrosinase. The conditions noted are these: cited from earlier work.
The mark [6] stands for this setting: L-DOPA substrate, read-out: IC50 (μM), L-DOPA as substrate (diphenolase activity).
Setting [7] is: L-tyrosine substrate, read-out: IC50 (μM), L-tyrosine as substrate (monophenolase activity).

Entries after “also recorded” stand apart in the source; their conditions may differ. Like-named read-outs stand apart in the source and are kept apart here. A value given as a limit tells only on which side of the number the result lay.

Take `O=C1/C(=C/c2ccc(O)cc2)Cc2ccccc21` [BID1, (E)-2-(4-Hydroxybenzylidene)-2,3-dihydro-1H-inden-1-one]: the IC50 on mushroom tyrosinase [1] (setting [6]) came to 130 ± 5.39 µM; at mushroom tyrosinase [1] (setting [7]), 39.7 ± 3.71 µM.
Take `O=C1/C(=C/c2ccc(O)c(O)c2)Cc2ccccc21` [BID2, (E)-2-(3,4-Dihydroxybenzylidene)-2,3-dihydro-1H-inden-1-one]: the figures for the IC50 on mushroom tyrosinase [1] (setting [6]) and on mushroom tyrosinase [1] (setting [7]) were 52.9 ± 2.62 µM and 41.3 ± 3.03 µM, respectively.
Take `O=C1/C(=C/c2ccc(O)cc2O)Cc2ccccc21` [BID3, (E)-2-(2,4-Dihydroxybenzylidene)-2,3-dihydro-1H-inden-1-one]: the inhibitory constant (Ki) at mushroom tyrosinase [2] (Dixon plot) turned out to be 2.4 µM. Moreover, the “Type of tyrosinase inhibition” value in the data set on mushroom tyrosinase [2] (Lineweaver-Burk and Dixon plots) was “mixed-type inhibition; also recorded: mixed-type inhibitor”. Moreover, the “Cytotoxic effect on B16F10 cells” value in the data set on B16F10 melanoma cells [3] is “no significant cytotoxic effect; also recorded: without inducing cytotoxicity”. Further, the Melanin contents result with B16F10 melanoma cells [4] was “decreased; also recorded: concentration dependently decrease”. Also, the Cellular tyrosinase activity result in data set [5] was “inhibited; also recorded: concentration dependently decrease”. Also, the IC50 was determined as 1.39 ± 4e-05 µM on mushroom tyrosinase [1] (setting [6]) and 0.034 ± 0.00224 µM at mushroom tyrosinase [1] (setting [7]).
`COc1cc(/C=C2\Cc3ccccc3C2=O)ccc1O` [BID4, (E)-2-(4-Hydroxy-3-methoxybenzylidene)-2,3-dihydro-1H-inden-1-one]: the IC50 at mushroom tyrosinase [1] (setting [6]) is > 200 µM; at mushroom tyrosinase [1] (setting [7]), 73.5 ± 5.78 µM. Besides, the “Tyrosinase inhibitory activity (in words)” value in the data set on mushroom tyrosinase [1] is recorded as “moderate tyrosinase inhibitory activity”.
With `CCOc1cc(/C=C2\Cc3ccccc3C2=O)ccc1O` [BID5, (E)-2-(3-Ethoxy-4-hydroxybenzylidene)-2,3-dihydro-1H-inden-1-one], the melting point was in the range of 135.8 to 136.4 °C. Further, at mushroom tyrosinase [1] (setting [6]), the IC50 was > 200 µM. Besides, the concentration for half-maximal inhibition (IC50) on mushroom tyrosinase [1] (setting [7]) was > 200 µM.
Regarding `COc1ccc(/C=C2\Cc3ccccc3C2=O)cc1O` [BID6, (E)-2-(3-Hydroxy-4-methoxybenzylidene)-2,3-dihydro-1H-inden-1-one], the IC50 at mushroom tyrosinase [1] (setting [6]) came to 50.8 ± 2.16 µM; at mushroom tyrosinase [1] (setting [7]) it was 5 ± 0.91 µM.
For `COc1ccc(/C=C2\Cc3ccccc3C2=O)cc1` [BID7, (E)-2-(4-Methoxybenzylidene)-2,3-dihydro-1H-inden-1-one], the IC50 on mushroom tyrosinase [1] (setting [6]) and at mushroom tyrosinase [1] (setting [7]) was > 200 µM throughout.
`COc1ccc(/C=C2\Cc3ccccc3C2=O)cc1OC` [BID8, (E)-2-(3,4-Dimethoxybenzylidene)-2,3-dihydro-1H-inden-1-one] yielded a melting point of 176.5 to 177.2 °C. Moreover, the IC50 on mushroom tyrosinase [1] (setting [6]) was > 200 µM. On mushroom tyrosinase [1] (setting [7]), the IC50 is > 200 µM.
As for `COc1ccc(/C=C2\Cc3ccccc3C2=O)c(OC)c1` [BID9, (E)-2-(2,4-Dimethoxybenzylidene)-2,3-dihydro-1H-inden-1-one], the 50% inhibitory concentration (IC50) on mushroom tyrosinase [1] (setting [6]) is 96.9 ± 9.78 µM; at mushroom tyrosinase [1] (setting [7]) it was > 200 µM.
`COc1cc(/C=C2\Cc3ccccc3C2=O)cc(OC)c1OC` [BID10, (E)-2-(3,4,5-Trimethoxybenzylidene)-2,3-dihydro-1H-inden-1-one] displayed a melting point of 164.4 to 165.2 °C. For the same compound, the IC50 on mushroom tyrosinase [1] (setting [6]) is > 200 µM. Also, at mushroom tyrosinase [1] (setting [7]), the IC50 was > 200 µM.
On to `COc1cc(/C=C2\Cc3ccccc3C2=O)cc(OC)c1O` [BID11, (E)-2-(4-Hydroxy-3,5-dimethoxybenzylidene)-2,3-dihydro-1H-inden-1-one], for which the melting point was 190.2 to 191.1 °C. Besides, on mushroom tyrosinase [1] (setting [6]), the IC50 was > 200 µM. Besides, at mushroom tyrosinase [1] (setting [7]), the IC50 is 75.2 ± 2.24 µM. For the same compound, the “Tyrosinase inhibitory activity (in words)” value with mushroom tyrosinase [1] is on record as “moderate tyrosinase inhibitory activity”.
Take `O=C1/C(=C/c2ccc(O)c(Br)c2)Cc2ccccc21` [BID12, (E)-2-(3-Bromo-4-hydroxybenzylidene)-2,3-dihydro-1H-inden-1-one]: the melting point lay within 225 to 226.2 °C. For the same compound, the concentration for half-maximal inhibition (IC50) at mushroom tyrosinase [1] (setting [6]) was > 200 µM. For the same compound, at mushroom tyrosinase [1] (setting [7]), the concentration for half-maximal inhibition (IC50) is > 200 µM.
Compound `O=C1/C(=C/c2cc(Br)c(O)c(Br)c2)Cc2ccccc21` [BID13, (E)-2-(3,5-Dibromo-4-hydroxybenzylidene)-2,3-dihydro-1H-inden-1-one] gave a melting point of 267.4 to 268.1 °C. Besides, the IC50 on mushroom tyrosinase [1] (setting [6]) is 75.3 ± 7.94 µM. On mushroom tyrosinase [1] (setting [7]), the concentration for half-maximal inhibition (IC50) was > 200 µM.
For the compound `O=C(O)/C=C/c1ccccc1` [Cinnamic acid, trans-cinnamic acid, reference compound], in the data set on tyrosinase, the “Reported type of tyrosinase inhibition” value was “mixed-mode tyrosinase inhibitor”. Besides, the “Inhibitory effect at the concentration of 200 µM” value with mushroom tyrosinase [1] is listed as “no inhibitory effect”. For the same compound, the half-maximal inhibitory concentration (IC50) at mushroom tyrosinase [1] (setting [6]) and on mushroom tyrosinase [1] (setting [7]) was > 200 µM each time.
Turning to `O=c1cc(CO)occ1O` [Kojic acid, kojic acid], the “Reported type of tyrosinase inhibition” value with tyrosinase is on record as “competitive type inhibitor”.
With `O=C(O)c1ccccc1C(=O)O` [Phthalic acid, phthalic acid, reference compound], in the data set with tyrosinase, the “Reported type of tyrosinase inhibition” value is “mixed-mode tyrosinase inhibitor”. Besides, in the data set with mushroom tyrosinase [1], the “Inhibitory effect at the concentration of 200 µM” value is given as “no inhibitory effect”. The IC50 at mushroom tyrosinase [1] (setting [6]) and on mushroom tyrosinase [1] (setting [7]) was > 200 µM each time.
